Publication PMC7527212 (Science Advances, 2020)

Key:
WT Bcl-xL = experiment: NMR titration / chemical shift perturbation; type: binding, human
F143W mutant of Bcl-xL = experiment: ITC measurement of Bak BH3 peptide binding, F143W mutant; set-up: species or system human; conditions: ratio of KA by ITC, F143W vs WT Bcl-xL

Substance	CSP in the cryptic site (WT Bcl-xL; NMR, 160 μM peptide added to 100 μM WT Bcl-xL, 10 mM NaPi pH 6.8, 2 mM DTT, 298 K)	binding to WT Bcl-xL (binding mode) (WT Bcl-xL; concluded from NMR CSPs, 160 μM peptide, 100 μM WT Bcl-xL)	affinity increase, F143W mutant versus WT Bcl-xL (F143W mutant of Bcl-xL)
NH3-YPLGSPLWRLHS-COOH [P1]	clear CSP in the cryptic site	binds to the WT Bcl-xL with the expected binding mode	
NH3-GQVGRQLAIIGDDINR-COOH [Bak BH3 peptide]			twofold
